Tested on: 648629-189-R-J1-PDC spheroids with HUVEC/MSC, viability
Assay: Anticancer human tumor 648629-189-R-J1-PDC patient-derived bladder carcinoma cell line growth inhibition [PI3K]
Conditions: for IC50: curve of first compound; for viability, T/C: stronger effect = lower value
In short: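 Three cell types, namely tumor cells, endothelial cells and mesenchymal stem cells, formed each spheroid. Combinations with four PI3K inhibitors were screened at clinically achievable concentrations decreasing by half-log, and spheroid viability was recorded.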

[1] = second compound 0.0316 µM, first compound 0.0316 µM
[2] = second compound 0.0316 µM, first compound 0.1 µM
[3] = second compound 0.0316 µM, first compound 0.316 µM
[4] = second compound 0.0316 µM, first compound 1 µM
[5] = second compound 0.0316 µM, first compound 3.16 µM
[6] = second compound 0.0316 µM, first compound 10 µM
[7] = second compound 0.1 µM, first compound 0.0316 µM
[8] = second compound 0.1 µM, first compound 0.1 µM
[9] = second compound 0.1 µM, first compound 0.316 µM
[10] = second compound 0.1 µM, first compound 1 µM
[11] = second compound 0.1 µM, first compound 3.16 µM
[12] = second compound 0.1 µM, first compound 10 µM
[13] = second compound 0.316 µM, first compound 0.0316 µM
[14] = second compound 0.316 µM, first compound 0.1 µM
[15] = second compound 0.316 µM, first compound 0.316 µM
[16] = second compound 0.316 µM, first compound 1 µM
[17] = second compound 0.316 µM, first compound 3.16 µM
[18] = second compound 0.316 µM, first compound 10 µM
[19] = second compound 1 µM, first compound 0.0316 µM
[20] = second compound 1 µM, first compound 0.1 µM
[21] = second compound 1 µM, first compound 0.316 µM
[22] = second compound 1 µM, first compound 1 µM
[23] = second compound 1 µM, first compound 3.16 µM
[24] = second compound 1 µM, first compound 10 µM
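Further: spheroids exposed to agents for seven days before reading.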
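Wherever viability, T/C is given: percent of vehicle control luminescence where 100% = DMSO treated spheroids.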

In the case of Cn1cnc2c(F)c(Nc3ccc(Br)cc3Cl)c(C(=O)NOCCO)cc21 + CC(Nc1ncnc2nc[nH]c12)c1cc2cccc(Cl)c2c(=O)n1-c1ccccc1, the IC50 (second compound 0.0316 µM) is reported as greater than 3 µM, the IC50 (second compound 0.1 µM) is reported as greater than 3 µM and the IC50 (second compound 0.316 µM) is reported as greater than 3 µM. For the same compound, the IC50 (second compound 1 µM) was greater than 3 µM, the IC50 (second compound 3.16 µM) was greater than 3 µM and the IC50 (second compound 10 µM) was greater than 3 µM. The viability, T/C (second compound 0.0316 µM, first compound 0.00949 µM) was 101%, the viability, T/C (second compound 0.0316 µM, first compound 0.03 µM) was 86.2% and the viability, T/C (second compound 0.0316 µM, first compound 0.0949 µM) was 84%. For the same compound, the viability, T/C (second compound 0.0316 µM, first compound 0.3 µM) was 101%, the viability, T/C (second compound 0.0316 µM, first compound 0.949 µM) was 93.6% and the viability, T/C (second compound 0.0316 µM, first compound 3 µM) was 81.6%. It also gave a viability, T/C (second compound 0.1 µM, first compound 0.00949 µM) of 97.1%, a viability, T/C (second compound 0.1 µM, first compound 0.03 µM) of 93.6% and a viability, T/C (second compound 0.1 µM, first compound 0.0949 µM) of 102%. For the same compound, the viability, T/C (second compound 0.1 µM, first compound 0.3 µM) was 95.5%, the viability, T/C (second compound 0.1 µM, first compound 0.949 µM) was 107% and the viability, T/C (second compound 0.1 µM, first compound 3 µM) was 90.1%. The viability, T/C (second compound 0.316 µM, first compound 0.00949 µM) was 95.8%, the viability, T/C (second compound 0.316 µM, first compound 0.03 µM) was 101% and the viability, T/C (second compound 0.316 µM, first compound 0.0949 µM) was 94%. It also gave a viability, T/C (second compound 0.316 µM, first compound 0.3 µM) of 114%, a viability, T/C (second compound 0.316 µM, first compound 0.949 µM) of 105% and a viability, T/C (second compound 0.316 µM, first compound 3 µM) of 79.2%. The viability, T/C (second compound 1 µM, first compound 0.00949 µM) was 105%, the viability, T/C (second compound 1 µM, first compound 0.03 µM) was 100% and the viability, T/C (second compound 1 µM, first compound 0.0949 µM) was 94.9%. It also gave a viability, T/C (second compound 1 µM, first compound 0.3 µM) of 98.9%, a viability, T/C (second compound 1 µM, first compound 0.949 µM) of 88.3% and a viability, T/C (second compound 1 µM, first compound 3 µM) of 88.2%. For the same compound, the viability, T/C (second compound 3.16 µM, first compound 0.00949 µM) was 103%, the viability, T/C (second compound 3.16 µM, first compound 0.03 µM) was 101% and the viability, T/C (second compound 3.16 µM, first compound 0.0949 µM) was 94.2%. It also gave a viability, T/C (second compound 3.16 µM, first compound 0.3 µM) of 108%, a viability, T/C (second compound 3.16 µM, first compound 0.949 µM) of 89.2% and a viability, T/C (second compound 3.16 µM, first compound 3 µM) of 84.4%. The viability, T/C (second compound 10 µM, first compound 0.00949 µM) was 93.2%, the viability, T/C (second compound 10 µM, first compound 0.03 µM) was 80.3% and the viability, T/C (second compound 10 µM, first compound 0.0949 µM) was 92.1%. For the same compound, the viability, T/C (second compound 10 µM, first compound 0.3 µM) was 92.8%, the viability, T/C (second compound 10 µM, first compound 0.949 µM) was 79% and the viability, T/C (second compound 10 µM, first compound 3 µM) was 68.6%.
C=CC(=O)N1CCN(c2nc(=O)n(-c3c(C)ccnc3C(C)C)c3nc(-c4c(O)cccc4F)c(F)cc23)C(C)C1 (stereo unspecified) + COc1c(OCCCN2CCOCC2)ccc2c3n(c(=NC(=O)c4cnc(N)nc4)nc12)CCN3 was tested, and the IC50 (second compound 0.00316 µM) was greater than 10 µM, the IC50 (second compound 0.01 µM) was greater than 10 µM and the IC50 (second compound 0.0316 µM) was greater than 10 µM. It also gave an IC50 (second compound 0.1 µM) greater than 10 µM, an IC50 (second compound 0.316 µM) of less than 0.0316 µM and an IC50 (second compound 1 µM) of less than 0.0316 µM. For the same compound, the viability, T/C (second compound 0.00316 µM, first compound 0.0316 µM) was 114%, the viability, T/C (second compound 0.00316 µM, first compound 0.1 µM) was 108% and the viability, T/C (second compound 0.00316 µM, first compound 0.316 µM) was 114%. For the same compound, the viability, T/C (second compound 0.00316 µM, first compound 1 µM) was 108%, the viability, T/C (second compound 0.00316 µM, first compound 3.16 µM) was 119% and the viability, T/C (second compound 0.00316 µM, first compound 10 µM) was 99.9%. It also gave a viability, T/C (second compound 0.01 µM, first compound 0.0316 µM) of 94.3%, a viability, T/C (second compound 0.01 µM, first compound 0.1 µM) of 91.3% and a viability, T/C (second compound 0.01 µM, first compound 0.316 µM) of 101%. For the same compound, the viability, T/C (second compound 0.01 µM, first compound 1 µM) was 113%, the viability, T/C (second compound 0.01 µM, first compound 3.16 µM) was 115% and the viability, T/C (second compound 0.01 µM, first compound 10 µM) was 79.1%. The viability, T/C [1] was 83.4%, the viability, T/C [2] was 81.9% and the viability, T/C [3] was 104%. For the same compound, the viability, T/C [4] was 94.6%, the viability, T/C [5] was 107% and the viability, T/C [6] was 87.8%. For the same compound, the viability, T/C [7] was 57.3%, the viability, T/C [8] was 64.5% and the viability, T/C [9] was 63.5%. It also gave a viability, T/C [10] of 79.1%, a viability, T/C [11] of 81.3% and a viability, T/C [12] of 77.2%. For the same compound, the viability, T/C [13] was 18.8%, the viability, T/C [14] was 22.1% and the viability, T/C [15] was 29%. For the same compound, the viability, T/C [16] was 25.5%, the viability, T/C [17] was 38% and the viability, T/C [18] was 35.3%. The viability, T/C [19] was 3.7%, the viability, T/C [20] was 4.13% and the viability, T/C [21] was 4.67%. The viability, T/C [22] was 6.38%, the viability, T/C [23] was 7.09% and the viability, T/C [24] was 8.01%.
CCCS(=O)(=O)Nc1ccc(F)c(C(=O)c2c[nH]c3ncc(-c4ccc(Cl)cc4)cc23)c1F + Cc1nc(NC(=O)N2CCCC2C(N)=O)sc1-c1ccnc(C(C)(C)C(F)(F)F)c1 showed an IC50 (second compound 0.0316 µM) of 5.13 µM, an IC50 (second compound 0.1 µM) of 5.06 µM and an IC50 (second compound 0.316 µM) of 4.81 µM. It also gave an IC50 (second compound 1 µM) of 4.31 µM, an IC50 (second compound 3.16 µM) of 3.69 µM and an IC50 (second compound 10 µM) of less than 0.0316 µM. The viability, T/C [1] was 122%, the viability, T/C [2] was 104% and the viability, T/C [3] was 123%. The viability, T/C [4] was 110%, the viability, T/C [5] was 86.2% and the viability, T/C [6] was 0.2%. It also gave a viability, T/C [7] of 115%, a viability, T/C [8] of 102% and a viability, T/C [9] of 114%. The viability, T/C [10] was 107%, the viability, T/C [11] was 84% and the viability, T/C [12] was 0.34%. The viability, T/C [13] was 93.3%, the viability, T/C [14] was 97.4% and the viability, T/C [15] was 96.9%. For the same compound, the viability, T/C [16] was 90.7%, the viability, T/C [17] was 79% and the viability, T/C [18] was 0.27%. For the same compound, the viability, T/C [19] was 81.1%, the viability, T/C [20] was 96.7% and the viability, T/C [21] was 103%. It also gave a viability, T/C [22] of 84.7%, a viability, T/C [23] of 68.7% and a viability, T/C [24] of 0.67%. For the same compound, the viability, T/C (second compound 3.16 µM, first compound 0.0316 µM) was 63.1%, the viability, T/C (second compound 3.16 µM, first compound 0.1 µM) was 65.7% and the viability, T/C (second compound 3.16 µM, first compound 0.316 µM) was 62%. It also gave a viability, T/C (second compound 3.16 µM, first compound 1 µM) of 53.1%, a viability, T/C (second compound 3.16 µM, first compound 3.16 µM) of 58% and a viability, T/C (second compound 3.16 µM, first compound 10 µM) of 0.64%. It also gave a viability, T/C (second compound 10 µM, first compound 0.0316 µM) of 43.7%, a viability, T/C (second compound 10 µM, first compound 0.1 µM) of 44.1% and a viability, T/C (second compound 10 µM, first compound 0.316 µM) of 33.7%. For the same compound, the viability, T/C (second compound 10 µM, first compound 1 µM) was 37%, the viability, T/C (second compound 10 µM, first compound 3.16 µM) was 27.3% and the viability, T/C (second compound 10 µM, first compound 10 µM) was 0.85%.

Reference: PubChem BioAssay AID1963974 (Molecular Pharmacology Branch, DTP, NCI, 2024)
